The compounds below were run against CDK12 wt/CycK (Homo sapiens (Human), UniProt Q9NYV4) (assay: Radiometric protein kinase assay (33PanQinase Activity Assay), Assay Condition A (thiol containing conditions)). Conditions: thiol containing conditions (1.2 mM DTT), ATP 0.3 μM; read-out: CDK12 IC50 Condition A.
CDK12 wt/CycK, sequence (Q9NYV4 whole entry): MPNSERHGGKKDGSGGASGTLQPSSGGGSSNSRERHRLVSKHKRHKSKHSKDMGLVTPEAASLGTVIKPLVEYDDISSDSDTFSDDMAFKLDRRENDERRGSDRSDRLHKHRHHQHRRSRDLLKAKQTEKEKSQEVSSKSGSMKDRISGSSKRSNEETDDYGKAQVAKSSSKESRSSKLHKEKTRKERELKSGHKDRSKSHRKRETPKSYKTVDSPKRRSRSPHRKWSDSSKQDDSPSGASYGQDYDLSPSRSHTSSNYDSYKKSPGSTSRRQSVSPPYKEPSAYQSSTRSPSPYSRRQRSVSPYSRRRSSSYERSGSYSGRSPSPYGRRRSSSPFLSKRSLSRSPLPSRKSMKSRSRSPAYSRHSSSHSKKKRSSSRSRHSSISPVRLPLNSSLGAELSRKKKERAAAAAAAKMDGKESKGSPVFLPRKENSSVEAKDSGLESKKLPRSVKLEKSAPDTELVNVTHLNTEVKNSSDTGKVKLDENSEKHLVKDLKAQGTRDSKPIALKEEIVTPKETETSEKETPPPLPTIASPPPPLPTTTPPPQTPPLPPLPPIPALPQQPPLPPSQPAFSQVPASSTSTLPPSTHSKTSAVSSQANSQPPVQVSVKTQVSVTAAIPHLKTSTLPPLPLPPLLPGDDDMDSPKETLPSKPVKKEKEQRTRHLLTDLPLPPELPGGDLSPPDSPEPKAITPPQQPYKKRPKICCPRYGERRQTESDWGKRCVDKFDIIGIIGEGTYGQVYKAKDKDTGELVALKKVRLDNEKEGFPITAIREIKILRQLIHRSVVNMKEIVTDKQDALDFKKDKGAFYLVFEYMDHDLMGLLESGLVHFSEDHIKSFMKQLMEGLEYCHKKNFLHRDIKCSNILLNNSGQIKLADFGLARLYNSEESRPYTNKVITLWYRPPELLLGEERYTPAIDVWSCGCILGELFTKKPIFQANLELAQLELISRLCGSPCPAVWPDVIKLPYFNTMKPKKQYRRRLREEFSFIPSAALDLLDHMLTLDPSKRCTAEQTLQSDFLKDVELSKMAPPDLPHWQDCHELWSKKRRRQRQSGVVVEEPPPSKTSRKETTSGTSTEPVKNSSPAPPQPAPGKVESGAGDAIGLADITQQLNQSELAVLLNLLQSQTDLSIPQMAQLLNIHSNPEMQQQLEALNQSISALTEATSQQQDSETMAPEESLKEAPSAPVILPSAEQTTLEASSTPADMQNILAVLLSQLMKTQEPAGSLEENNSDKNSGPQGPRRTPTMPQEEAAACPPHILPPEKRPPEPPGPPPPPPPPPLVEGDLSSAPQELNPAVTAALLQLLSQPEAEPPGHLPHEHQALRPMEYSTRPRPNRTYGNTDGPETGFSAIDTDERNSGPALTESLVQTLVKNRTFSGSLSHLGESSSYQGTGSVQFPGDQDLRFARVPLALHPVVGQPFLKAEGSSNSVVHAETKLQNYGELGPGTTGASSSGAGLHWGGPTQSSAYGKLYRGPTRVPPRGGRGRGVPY
CDK12 wt/CycK, sequence (O75909 whole entry partner): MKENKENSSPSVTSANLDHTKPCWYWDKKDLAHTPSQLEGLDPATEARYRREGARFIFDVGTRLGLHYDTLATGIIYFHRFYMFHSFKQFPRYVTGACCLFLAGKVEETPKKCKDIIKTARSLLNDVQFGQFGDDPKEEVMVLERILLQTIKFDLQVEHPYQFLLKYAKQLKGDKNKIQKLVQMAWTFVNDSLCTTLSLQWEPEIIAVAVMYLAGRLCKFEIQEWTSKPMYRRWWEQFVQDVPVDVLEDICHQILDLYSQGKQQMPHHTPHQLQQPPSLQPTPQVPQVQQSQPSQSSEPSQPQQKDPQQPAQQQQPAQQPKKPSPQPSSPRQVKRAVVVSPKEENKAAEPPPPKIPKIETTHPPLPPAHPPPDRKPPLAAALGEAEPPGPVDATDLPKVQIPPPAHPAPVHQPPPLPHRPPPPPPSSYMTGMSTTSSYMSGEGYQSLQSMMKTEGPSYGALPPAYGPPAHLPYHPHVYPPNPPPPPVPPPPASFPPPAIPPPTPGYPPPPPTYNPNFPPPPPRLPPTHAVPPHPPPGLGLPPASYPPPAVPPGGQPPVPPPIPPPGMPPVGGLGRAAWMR
Format: biochemical
Method in brief: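 Recombinant human kinase incubated with [33P]ATP, substrate and compound (10 concentrations, 1×10^−04M to 3×10^−09M, singlicate, 1% DMSO) under thiol-containing buffer conditions, 60 min at 30 °C. 33Pi incorporation counted by scintillation; residual activity normalised to no-inhibitor and no-kinase controls, IC50 derived.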
`COc1nc(N[C@@H]2CCN(C(=O)c3ccc(NC(=O)/C=C/CN4CCCC(F)(F)C4)cn3)C2)ncc1Cl` [Example 172, (R,E)-N-(6-(3-((5-chloro-4-methoxypyrimidin-2-yl)amino)pyrrolidine-1-carbonyl)pyridin-3-yl)-4-(3,3-difluoropiperidin-1-yl)but-2-enamide] was tested, and the IC50 was 0.1 to 1 µM. `COc1nc(N[C@@H]2CCN(C(=O)c3ccc(NC(=O)/C=C/CN4CCCC(F)(F)C4)cc3)C2)ncc1Cl` [Example 173, (R,E)-N-(4-(3-((5-chloro-4-methoxypyrimidin-2-yl)amino)pyrrolidine-1-carbonyl)phenyl)-4-(3,3-difluoropiperidin-1-yl)but-2-enamide] gave an IC50 of 0.1 to 1 µM. `COc1nc(N[C@@H]2CCN(C(=O)c3ccc(NC(=O)/C=C/CN4CCOCC4)cn3)C2)ncc1Cl` [Example 174, (R,E)-N-(6-(3-((5-chloro-4-methoxypyrimidin-2-yl)amino)pyrrolidine-1-carbonyl)pyridin-3-yl)-4-morpholinobut-2-enamide] was tested, and the IC50 was 0.1 to 1 µM. Compound `COc1nc(N[C@@H]2CCN(C(=O)c3ccc(NC(=O)/C=C/CN4CCC[C@H](F)C4)cn3)C2)ncc1Cl` [Example 175, (E)-N-(6-((R)-3-((5-chloro-4-methoxypyrimidin-2-yl)amino)pyrrolidine-1-carbonyl)pyridin-3-yl)-4-((S)-3-fluoropiperidin-1-yl)but-2-enamide] has an IC50 of 0.1 to 1 µM. For `COc1nc(N[C@@H]2CCN(C(=O)c3ccc(NC(=O)/C=C/CN4CCC[C@@H](F)C4)cn3)C2)ncc1Cl` [Example 176, (E)-N-(6-((R)-3-((5-chloro-4-methoxypyrimidin-2-yl)amino)pyrrolidine-1-carbonyl)pyridin-3-yl)-4-((R)-3-fluoropiperidin-1-yl)but-2-enamide], the IC50 was 0.1 to 1 µM. With `COc1nc(N[C@@H]2CCN(C(=O)c3ccc(NC(=O)/C=C/CN4CCC[C@H](F)C4)cc3)C2)ncc1Cl` [Example 177, (E)-N-(4-((R)-3-((5-chloro-4-methoxypyrimidin-2-yl)amino)pyrrolidine-1-carbonyl)phenyl)-4-((S)-3-fluoropiperidin-1-yl)but-2-enamide] the IC50 was 0.1 to 1 µM. `COc1nc(N[C@@H]2CCN(C(=O)c3ccc(NC(=O)/C=C/CN4CCC[C@@H](F)C4)cc3)C2)ncc1Cl` [Example 178, (E)-N-(4-((R)-3-((5-chloro-4-methoxypyrimidin-2-yl)amino)pyrrolidine-1-carbonyl)phenyl)-4-((R)-3-fluoropiperidin-1-yl)but-2-enamide] gave an IC50 of 0.1 to 1 µM. With `COc1nc(N[C@@H]2CCN(C(=O)c3ccc(NC(=O)/C=C/CN4CC[C@@H](F)C4)nc3)C2)ncc1Cl` [Example 179, (E)-N-(5-((R)-3-((5-chloro-4-methoxypyrimidin-2-yl)amino)pyrrolidine-1-carbonyl)pyridin-2-yl)-4-((R)-3-fluoropyrrolidin-1-yl)but-2-enamide] the IC50 was 0.1 to 1 µM. Work on `C=CC(=O)Nc1ccc(C(=O)N2C[C@H](Nc3ncc(Cl)c(OC)n3)C[C@@H]2C)cc1` [Example 180, N-(4-((2S,4R)-4-((5-chloro-4-methoxypyrimidin-2-yl)amino)-2-methylpyrrolidine-1-carbonyl)phenyl)acrylamide] yielded an IC50 of under 0.1 µM. `C#Cc1cnc(N[C@@H]2CCN(C(=O)c3ccc(NC(=O)C=C)cc3)C2)nc1` [Example 181, (R)—N-(4-(3-((5-ethynylpyrimidin-2-yl)amino)pyrrolidine-1-carbonyl)phenyl)acrylamide] showed an IC50 of under 0.1 µM. With `C#Cc1cnc(N[C@@H]2CCN(C(=O)c3ccc(NC(=O)C=C)cc3)C2)nc1OC` [Example 182, (R)—N-(4-(3-((5-ethynyl-4-methoxypyrimidin-2-yl)amino)pyrrolidine-1-carbonyl)phenyl)acrylamide] the IC50 was under 0.1 µM. In the case of `C=CC(=O)Nc1ccc(C(=O)N2C[C@H](Nc3ncc(Cl)c(OC)n3)C[C@H]2C)cc1` [Example 183, N-(4-((2R,4R)-4-((5-chloro-4-methoxypyrimidin-2-yl)amino)-2-methylpyrrolidine-1-carbonyl)phenyl)acrylamide], the IC50 is reported as under 0.1 µM. `C=CC(=O)Nc1ccc(C(=O)N2CC[C@@H](Nc3ncc(C(F)(F)F)cn3)C2)cc1` [Example 184, (R)—N-(4-(3-((5-(trifluoromethyl)pyrimidin-2-yl)amino)pyrrolidine-1-carbonyl)phenyl)acrylamide] showed an IC50 of under 0.1 µM.

What follows are compounds tested against CDK12 (Homo sapiens (Human), UniProt Q9NYV4) (assay: Radiometric protein kinase assay (33PanQinase Activity Assay), Assay Condition B (thiol-free conditions)). Conditions: thiol-free conditions (1 mM TCEP, glutathione removed).
CDK12, sequence (Q9NYV4 whole entry): as the sequence (Q9NYV4 whole entry) above
CDK12, sequence (O75909 whole entry partner): as the sequence (O75909 whole entry partner) above
Format: biochemical
Protocol: Example 2—Assay Condition B (Thiol-Free Conditions)
The IC50 profile of compounds was determined using one protein kinase in a customized, thiol free assay. […] Prior to testing, the 1×10^−03 M stock solutions in column 2 of the master plates were subjected to a serial, semi-logarithmic dilution using 100% DMSO as a solvent. […] Column 1 and 7 were filled with 100% DMSO as controls. Subsequently, 2×10 microliter from each well of the serial diluted copy plates were aliquoted with a 96 channel pipettor into two identical sets of “compound dilution plates”. All plates were barcoded for automated identification and tracking purposes. […] All compounds were stored as powder until being solubilized in DMSO. Solubilized compounds were stored as 1×10^−02 M/100% DMSO stock solutions. Prior to the assay process, 90 microliters of H2O were added to each well of a set of compound dilution plates. To minimize potential precipitation, the H2O was added to each plate only a few minutes before the transfer of the compound solutions into the assay plates. Each plate was shaken thoroughly, resulting in compound dilution plates with a final of 10% DMSO. For each assay, 5 microliters of solution from each well of the compound dilution plates/10% DMSO were transferred into the assay plate. The final volume of the assay was 50 μl. All compounds were tested at 10 final assay concentrations in the range from 1×10^−05 M to 3×10^−10 M, in singlicate. The final DMSO concentration in the reaction cocktails was 1% in all cases. A radiometric protein kinase assay (33PanQinase® Activity Assay) was used for measuring the kinase activity of the protein kinase. All kinase assays were performed in 96-well FlashPlates™ from PerkinElmer (Boston, Mass., USA) in a 50 microliter reaction volume. The reaction cocktail was pipetted in four steps in the following order: 20 microliter of assay buffer (standard buffer)·5 microliter of ATP solution (in H2O)·5 microliter of test compound (in 10% DMSO)·20 microliter enzyme/substrate mix. […] For all experiments labeled as “Thiol-free”, all glutathione was exchanged from protein preparations so as to be removed from the assay and final buffer conditions contained no thiol-containing reagents. This was done so there would be no interference with the key cysteines in the proteins of interest.
For data analysis, the median value of the counts in column 1 (n=8) of each assay plate was defined as “low control”. This value reflects unspecific binding of radioactivity to the plate in the absence of a protein kinase but in the presence of the substrate. The median value of the counts in column 7 of each assay plate (n=8) was taken as the “high control”, i.e. full activity in the absence of any inhibitor. The difference between high and low control was taken as 100% activity. As part of the data evaluation the low control value from a particular plate was subtracted from the high control value as well as from all 80 “compound values” of the corresponding plate. The residual activity (in %) for each well of a particular plate was calculated by using the following formula: Res. Activity (%)=100×[(cpm of compound−low control)/(high control−low control)]
The residual activities for each concentration and the compound IC50 values were calculated using Quattro Workflow V3.1.1 (Quattro Research GmbH, Munich, Germany; www.quattro-research.com). […] The fitting method used was a least-squares fit. As a parameter for assay quality, the Z′-factor (Zhang et al., J. Biomol. Screen. 2: 67-73, 1999) for the low and high controls of each assay plate (n=8) was used. ProQinase's criterion for repetition of an assay plate is a Z′-factor below 0.4 (Iversen et al., J. Biomol. Screen. 3: 247-252, 2006).
`C=CC(=O)Nc1ccc(C(=O)N2CC[C@@H](Nc3nccc(OC4CCCC4)n3)C2)cc1` (stereo in doubt) [Example 45, N-{4-[3-(4-Cyclopentyloxy-pyrimidin-2-ylamino)-pyrrolidine-1-carbonyl]-phenyl}-acrylamide] gave an IC50 of 0.1 to 1 µM. For `C=CC(=O)Nc1ccc(C(=O)N2CC[C@@H](Nc3nccc(Oc4cnn(C)c4)n3)C2)cc1` (stereo in doubt) [Example 46, N-(4-{3-[4-(1-Methyl-1H-pyrazol-4-yloxy)-pyrimidin-2-ylamino]-pyrrolidine-1-carbonyl}-phenyl)-acrylamide], the IC50 was 1 to 10 µM. `C=CC(=O)Nc1ccc(C(=O)N2CC[C@@H](Nc3nccc(-c4cncs4)n3)C2)cc1` (stereo in doubt) [Example 48, N-{4-[3-(4-Thiazol-5-yl-pyrimidin-2-ylamino)-pyrrolidine-1-carbonyl]-phenyl}-acrylamide] gave an IC50 of 0.1 to 1 µM. For `C=CC(=O)Nc1ccc(C(=O)N2CC[C@@H](Nc3ncc(Cl)c(OC)n3)C2)cc1OC` [Example 1, (R)-N-(4-(3-((5-chloro-4-methoxypyrimidin-2-yl)amino)pyrrolidine-1-carbonyl)-2-methoxyphenyl)acrylamide], the IC50 was under 0.1 µM. Work on `C=CC(=O)N1CCOc2cc(C(=O)N3CC[C@@H](Nc4ncc(Cl)c(OC)n4)C3)ccc21` [Example 2, (R)-1-(7-(3-((5-chloro-4-methoxypyrimidin-2-yl)amino)pyrrolidine-1-carbonyl)-2H-benzo[b][1,4]oxazin-4(3H)-yl)prop-2-en-1-one] yielded an IC50 of 0.1 to 1 µM. For `C=CC(=O)Nc1ccc(C(=O)N2CC[C@@H](Nc3ncc(Cl)c(OC)n3)C2)cc1-c1cnn(C)c1` [Example 4, (R)-N-(4-(3-((5-chloro-4-methoxypyrimidin-2-yl)amino)pyrrolidine-1-carbonyl)-2-(1-methyl-1H-pyrazol-4-yl)phenyl)acrylamide], the IC50 was 0.1 to 1 µM. For `C=CC(=O)Nc1ccc(C(=O)N2CC[C@@H](Nc3ncc(Cl)c(OC)n3)C2)cc1Cl` [Example 5, (R)-N-(2-chloro-4-(3-((5-chloro-4-methoxypyrimidin-2-yl)amino)pyrrolidine-1-carbonyl)phenyl)acrylamide], the IC50 was under 0.1 µM. Work on `C=CC(=O)Nc1ccc(C(=O)N2CC[C@@H](Nc3ncc(Cl)cn3)C2)cc1Cl` [Example 6, (R)-N-(2-chloro-4-(3-((5-chloropyrimidin-2-yl)amino)pyrrolidine-1-carbonyl)phenyl)acrylamide] yielded an IC50 of under 0.1 µM. In the case of `C=CC(=O)Nc1nc(C(=O)N2CC[C@@H](Nc3ncc(Cl)c(OC)n3)C2)cs1` [Example 7, (R)-N-(4-(3-((5-chloro-4-methoxypyrimidin-2-yl)amino)pyrrolidine-1-carbonyl)thiazol-2-yl)acrylamide], the IC50 is reported as under 0.1 µM. `C=CC(=O)Nc1ncc(C(=O)N2CC[C@@H](Nc3ncc(Cl)c(OC)n3)C2)s1` [Example 8, (R)—N-(5-(3-((5-chloro-4-methoxypyrimidin-2-yl)amino)pyrrolidine-1-carbonyl)thiazol-2-yl)acrylamide] was tested, and the IC50 was 0.1 to 1 µM. With `C=CC(=O)Nc1ccc(C(=O)N2CC[C@@H](Nc3ncc(Cl)c(OC)n3)C2)cc1N1CCN(C)CC1` [Example 9, (R)-N-(4-(3-((5-chloro-4-methoxypyrimidin-2-yl)amino)pyrrolidine-1-carbonyl)-2-(4-methylpiperazin-1-yl)phenyl)acrylamide] the IC50 was under 0.1 µM.
